Results as given in patent US20250302792A1, “ACTIVE SUBSTANCES FOR MEDICAL USE” (inflamed pharma GmbH, priority 2022, published 2025).
Structures can show the parent of a compound that is named as a salt. Where two headings read alike, the source gives them in different places.

How the values were obtained:
[1] = tested on: A. fumigatus; test: Hyphae formation of GFP-expressing A. fumigatus conidia in DMEM/BA medium (FIG. 1); format: cell-based, Aspergillus fumigatus; conditions: procaine HCl 0.31 or 1.25-10 mM, 10 h, 37° C.
Description: (A) Procedure for the treatment method: conidia of a green-fluorescence protein (GFP)-expressing A. fumigatus strain [5*10^6 conidia/well] were sown on cover slips in 24-well plates in 300 μl of DMEM/BA medium (0.2% BSA, 1 mM MgCl2 and 0.9 mM CaCl2) and, in each case supplemented with solvent (H2O), procaine HCl [0.31 (B) or 1.25 (C)—10 mM] or voriconazole [0.2 μg ml^−1], incubated at 37° C., 5% CO2, for 10 h. Subsequently, the fungi were fixed (3.7% formaldehyde in PBS, 30 min, room temperature) and applied to microscope slides with the aid of fluorescent dye solution (Agilent, Santa Clara, CA, USA). The hyphae size was analyzed by (B) Axio Observer.Z1 microscope (Zeiss, Jena, Germany) and the Fiji V 1.52b software (github.com/fiji/fiji). (C) Fungus size was calculated with the particle counter software (github.com/chko90/particle counter). The data are a representation of four experiments (B) or the mean+SD of four experiments with two technical samples in each case (C). Statistical significance was calculated with GraphPad Prism 9.2 (Graphpad Software, Boston, USA) using the one-way ANOVA Dunnett multiple comparison test. P values are indicated by asterisks *p<0.05.

[2] = tested on: influenza virus A/Puerto Rico/8/34; format: cell-based
[3] = tested on: A. fumigatus; format: cell-based, Aspergillus fumigatus
[4] = tested on: influenza virus A/Puerto Rico/8/34 (IAV); format: cell-based
[5] = tested on: A. fumigatus; format: cell-based, Aspergillus fumigatus; remark: listed apart in the source
[6] = tested on: A. fumigatus; test: Hyphae formation of A. fumigatus in a human cell-free system, DMEM with 10% FCS (FIG. 4); format: cell-based, Aspergillus fumigatus; conditions: 10 h
Description: (A) Procedure for the treatment method: conidia of a GFP-expressing A. fumigatus strain [5*10^6 conidia/well] was sown on cover slips in 24-well plates and incubated with solvent (H2O) or with the specified concentrations of voriconazole, ProcCluster® (B-C) or procaine HCl (D-E) in DMEM with 10% FCS at 37° C., 5% CO2, for 10 h. Subsequently, the fungi were fixed (3.7% formaldehyde in PBS, 1 h, room temperature) and applied to microscope slides with fluorescent dye solution (Agilent, Santa Clara, CA, USA). (B, D) The growth of A. fumigatus was visualized via internal GFP expression. The scale of the immunofluorescence images corresponds to 100 μm. Detection of immunofluorescence and imaging and image processing were effected with an Axio Observer.Z1 microscope (Zeiss, Jena, Germany) and the Fiji V 1.52b software (github.com/fiji/fiji). (C, E) Fungus size was determined by means of the particle counter software (github.com/chko90/particle counter). Five immunofluorescence images were taken for each sample. The fungus sizes ascertained were normalized and the solvent control was set at 100%. Statistical significance was ascertained by a one-way ANOVA test with Dunnett multiple comparison test using GraphPad Prism 9.2 (Graphpad Software, Boston, USA) (p<0.05 was considered to be the level of statistical significance).

[7] = Solubility in octanol, content by UV/VIS spectroscopy and pH; format: physicochemical; conditions: for pH: solubility test in octanol
Description: Solubility tests in octanol were conducted, and the content in the organic phase was examined by UV/VIS spectroscopy, as were the pH values.

| SMILES | hyphae formation by A. fumigatus [1] | pathogenic load of influenza viruses [2] | pathogenic load of A. fumigatus [3] | virus load [4] | hyphae formation [5] | hyphae formation [6] | Content (solubility in octanol, content in the organic phase) ([7]; octanol, UV/VIS spectroscopy, hydrochloride) [%] | Content (solubility in octanol, content in the organic phase) ([7]; octanol, UV/VIS spectroscopy, listed as Procaine HCl, hydrochloride) [%] | pH ([7]; hydrochloride) | membrane permeability concluded from solubility in the organic phase ([7]; octanol) | Content (solubility in octanol, content in the organic phase) ([7]; octanol, UV/VIS spectroscopy) [%] | pH [7] | Content (solubility in octanol, content in the organic phase) [7] |
| --- | --- | --- | --- | --- | --- | --- | --- | --- | --- | --- | --- | --- | --- |
| CCN(CC)CCOC(=O)c1ccc(N)cc1 [Procaine hydrochloride, procaine hydrochloride] | reduces hyphae formation | reduced | reduced | reduced virus load | reduced | reduced hyphae formation | 8 | 8 | 4.5 | – | – | – | – |
| CCN(CC)CCOC(=O)c1ccc(N)cc1.O=C(O)O [Carbonic acid adduct of procaine] | – | – | – | – | – | – | – | – | – | membrane-permeable | 74 | 7.5 | – |
| CCN(CC)CCOC(=O)c1ccc(N)cc1 [Procaine, 2-(N,N-diethylamino)ethyl 4-aminobenzoate] | – | – | – | – | – | – | – | – | – | – | – | 8.5 | completely dissolved (100%) |
